Laboratory results reported in patent US20240262835A1, “PRMT5 INHIBITING COMPOUNDS AND USES THEREOF” (ANTENGENE DISCOVERY LIMITED, priority 2023, published 2024).
pIC50: −log10 of the molar value.

Columns and labels:
[1] = Caco-2 cell monolayer model assay (permeability); type: in vitro ADME; conditions: human
Protocol: (§1) Caco-2 cell model was used to assess the permeability of the compounds disclosed herein. Caco-2 cell was obtained from the CO-BIOR and the CO-BIOR Number is CBP60025. The cell generation used in the experiment was P9.
(§2) 1) […] of cell culture medium was added to each well of the Transwell reservoir, respectively. And then the PET transwell plates were incubated at 37° C., 5% CO2 for 1 hour before cell seeding.
(§3) 2) Caco-2 cells were diluted to 3.43×10^5 cells/mL with culture medium and 100 μL of cell suspension were dispensed into the filter well of the 96-well PET Transwell plate. Cells were cultivated for 14-18 days in a cell culture incubator at 37° C., 5% CO2, 95% relative humidity. Cell culture medium was replaced every other day, beginning no later than 24 hours after initial plating.
(§4) 3) Measure the electrical resistance across the monolayer by using Millicell Epithelial Volt-Ohm measuring system. Record the electrical resistance for each well. Once all wells have been measured, return the plate(s) to the incubator.
(§5) 4) TEER of each well is calculated by the equation below. The TEER value of each well should be greater than 230 ohms·cm^2.
(§6) 1) Remove the Caco-2 plate(s) from the incubator. Wash the monolayer twice with pre-warmed HBSS (10 mM HEPES, pH 7.4). Then incubate the plate(s) at 37° C. for 30 minutes.
(§7) 2) Prepare stock solutions of control compounds in DMSO at 5 mM and dilute with HBSS (10 mM HEPES, pH 7.4) to get 5 μM working solutions. Prepare stock solutions of test compounds in DMSO at 1 mM and dilute with HBSS (10 mM HEPES, pH 7.4) to get 1 μM working solutions. Digoxin is used as the reference substrate of Pgp. Atenolol is used as the low permeability marker, minoxidil is used as the high permeability marker.
(§8) 3) To determine the rate of drug transport in the apical to basolateral direction, add 100 μL of the working donor solutions (without inhibitor) to the Transwell insert (apical compartment). Fill the wells in the receiver plate (basolateral compartment) with 300 μL of transport buffer. To determine the rate of drug transport in the basolateral to apical direction, add 300 μL of the working donor solutions (without inhibitor) to the receiver plate wells (basolateral compartment). Fill the Transwell insert (apical compartment) with 100 μL of transport buffer.
(§9) 4) Transfer 50 μL samples from the working solutions to 300 μL of cold MeOH:acetonitrile=1:1 with IS (50 ng/ml Labetalol, 50 ng/ml Tolbutamide) to prepare the time 0 samples. Incubate the Transwell plate at 37° C., 5% CO2 with shaking at 60 rpm on a rotary shaker for 2 hours.
(§10) 5) At the end of the transport period, transfer 50 μL of samples from apical and basolateral wells to a new 96-well plate. Add 300 μL of quenching solution (MeOH:acetonitrile=1:1 with IS (50 ng/ml Labetalol, 50 ng/mL Tolbutamide)) into each well of the plate(s). Vortex for 10 minutes. Samples are centrifuged at 4000 rpm g for 30 minutes. An aliquot of 100 μL of the supernatant is mixed with an appropriate volume of ultra-pure water (depends on the LC-MS/MS signal response and peak shape) before LC-MS/MS analysis.
(§11) 6) To determine the Lucifer Yellow leakage after 2-hour transport period, prepare stock solutions of Lucifer yellow in DMSO and dilute with HBSS (10 mM HEPES, pH 7.4) to reach the final concentration of 100 μM. Add 100 μL of the Lucifer yellow solution to the apical compartment. Fill the basolateral compartment with 300 μL of HBSS (10 mM HEPES, pH 7.4). Incubate the plate(s) at 37° C. for 30 minutes and remove 80 μL directly from the apical and basolateral wells and transfer to new 96 wells plates. Measure Lucifer Yellow fluorescence (to monitor monolayer integrity) in a fluorescence plate reader at 485 nm excitation and 530 nm emission.
(§12) 7) Discard the remaining solution in the cell plate, Add 300 μL of quenching solution (MeOH:acetonitrile=1:1 with IS (50 ng/ml Labetalol, 50 ng/mL Tolbutamide)) into each well of the plate(s), blow up and down and mix well for 5 times. […]

[2] = Hepatic metabolic stability (HMS) assay, human hepatocytes; conditions: human, cryopreserved hepatocytes
Protocol: 1) 10 mM test compounds were provided.
2) 30 mM positive control stock solutions: Dissolved accurate amount of positive control compounds in dimethyl sulfoxide (DMSO).
3) 1000× Stock Solution: Diluted 10 mM test compounds and 30 mM positive control compounds to 1 mM and 3 mM with DMSO in 96-well plates.
4) 100× Dosing Solution: Diluted 1 mM test compounds and 3 mM positive control compounds to 100 μM and 300 μM dosing solutions with ACN.
5) Preparation of 0.5×10^6/mL cells suspension: cryopreserved cells were thawed, isolated and suspended in Incubation Medium, then diluted with pre-warmed Incubation Medium to 0.5×10^6 cells/mL.
6) Add 198 μL of pre-warmed cell suspensions in 96-well plates.
7) Preparation of Quenching Plate: Transfer 125 μL of stop solution in a set of pre-labeled 96-well plates.
8) Spike 2 μL dosing solution to each well of 96-well plates in duplicate.
9) For TO Samples, mix to achieve a homogenous suspension for about 1 min, then immediately transfer 25 μL of each sample into well containing 125 μL of ice-cold stop solution followed by mixing.
10) Incubate all plates at 37° C. in a 95% humidified incubator at 5% CO2 to start the reactions with constant shaking.
11) At 15, 30, 60 and 90 min, mix samples and then transfer 25 μL of each sample at each time point to well containing 125 μL of ice-cold stop solution followed by mixing.
12) Medium Control (MC) sample plates (labeled as TO-MC and T90-MC) are prepared in the same way as cell incubation except that medium was used instead of cell suspension.
13) At each corresponding time point, stop the reactions by removing the plates from incubator and mixing with 125 μL of ice-cold stop solution.
14) Vortex the plates immediately on a plate shaker at 600 rpm for 10 minutes. Then, centrifuge all sample plates at 3220×g for 20 min at 4° C.
15) After centrifugation, 80 μL/well of supernatant in the sample plates are transferred to another set of pre-labeled 96-well plates which containing 240 μL of ultra pure water according to the plate map.
16) Analytical plates are sealed and store at 4° C. until LC-MS/MS analysis.
The remaining percents of test articles after incubation were calculated by the follow equations:
Use the following equation of first order kinetics to calculate T1/2 and CLint:

[3] = Hepatic metabolic stability (HMS) assay, cynomolgus monkey hepatocytes; conditions: cynomolgus monkey, cryopreserved hepatocytes
[4] = in vitro; conditions: cynomolgus monkey, microsomes
[5] = molecular target: CYP2C9 (Homo sapiens (Human), UniProt P11712); assay: CYP isoforms inhibitory assay in human liver microsome, CYP2C9; type: in vitro ADME; conditions: substrate diclofenac
Chain of CYP2C9 (P11712 whole entry, canonical isoform): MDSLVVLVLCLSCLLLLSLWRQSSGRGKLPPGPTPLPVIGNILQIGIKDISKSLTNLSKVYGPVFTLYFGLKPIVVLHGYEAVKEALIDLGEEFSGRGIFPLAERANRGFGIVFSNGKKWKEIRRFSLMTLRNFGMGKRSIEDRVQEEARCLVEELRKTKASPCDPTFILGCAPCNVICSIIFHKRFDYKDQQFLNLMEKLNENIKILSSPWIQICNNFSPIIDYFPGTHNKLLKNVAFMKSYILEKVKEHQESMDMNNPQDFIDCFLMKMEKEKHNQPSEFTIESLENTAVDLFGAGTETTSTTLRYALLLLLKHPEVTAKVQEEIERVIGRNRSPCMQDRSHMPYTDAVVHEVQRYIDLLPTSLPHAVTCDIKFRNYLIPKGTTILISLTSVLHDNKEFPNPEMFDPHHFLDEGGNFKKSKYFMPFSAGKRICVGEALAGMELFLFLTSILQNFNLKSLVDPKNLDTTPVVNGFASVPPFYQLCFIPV
Protocol: (§13) CYP isoforms inhibitory activities of test compounds were measured in human liver microsome.
(§14) Preparation details of these substrates are given in below table. The substrate stock solution was stored in a −20° C. freezer. Prior to use, the substrate stock solution was removed from the freezer and allowed to rise to room temperature. Then the substrate stock solution was mixed on a whirly mixer for 30 seconds.
(§15) HLMs were stored in a −80° C. freezer. Prior to use, the pooled HLM was removed from the freezer and allowed to thaw in a 37° C. water bath and then stored on wet ice.
(§16) The positive control inhibitors and their concentrations used by each isozyme are summarized below.
(§17) All samples were incubated in a 37° C. water bath, with three parallels for each concentration of the test compound and two parallels for each concentration of the positive control inhibitor. 100 μL of microsome working solution was taken and added 2 μL of the test product or positive inhibitor working solution. 2 μL solvents was added to the solvent control, and put in a water bath to pre-incubate for 10 min. After pre-incubation, 98 μL of NADPH regeneration solution was added to all samples to start the reaction. Then the mixture was put back in the water bath and incubated for a certain period of time.
(§18) The reaction was quenched by 200 μL stop solution. […]
(§19) IC50 values were determined using 3- or 4-parameter logistic equation.

[6] = system: Caco-2 cell monolayer; assay: Caco-2 cell monolayer model assay (permeability); type: in vitro ADME; conditions: Caco-2, 1 μM
Protocol: as §1, §2, §3, §4, §5, §6, §7, §8, §9, §10, §11, §12

[7] = system: cryopreserved hepatocytes
[8] = molecular target: CYP1A2 (Homo sapiens (Human), UniProt P05177); conditions: microsomes
Chain of CYP1A2 (P05177 whole entry): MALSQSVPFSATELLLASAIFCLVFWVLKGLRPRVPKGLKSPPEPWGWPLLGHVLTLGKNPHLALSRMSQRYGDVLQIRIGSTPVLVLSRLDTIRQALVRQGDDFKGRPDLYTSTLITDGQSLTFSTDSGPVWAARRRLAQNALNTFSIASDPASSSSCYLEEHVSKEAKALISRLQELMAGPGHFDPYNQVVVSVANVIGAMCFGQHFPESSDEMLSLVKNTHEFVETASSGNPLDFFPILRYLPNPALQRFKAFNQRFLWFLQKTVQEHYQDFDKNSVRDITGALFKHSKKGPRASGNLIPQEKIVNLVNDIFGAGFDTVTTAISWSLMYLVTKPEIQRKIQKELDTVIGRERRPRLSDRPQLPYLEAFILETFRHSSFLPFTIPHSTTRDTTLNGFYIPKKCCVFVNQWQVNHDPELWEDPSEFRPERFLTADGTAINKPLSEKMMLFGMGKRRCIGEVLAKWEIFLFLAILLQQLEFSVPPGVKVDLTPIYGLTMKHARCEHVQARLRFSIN
Protocol: as §13, §14, §15, §16, §17, §18, §19

[9] = Liver microsome metabolic stability (LMS) assay, cynomolgus monkey

Structure (SMILES): CN(C(=O)c1ccc2nc(N)c3cncn3c2c1)[C@@H]1COc2cc(C(F)(F)F)ccc21 [Compound 12]
- efflux ratio at 2 h, 1 μM ([1]; Caco-2, pH 7.4): 1.98
- Papp A→B at 2 h, 1 μM ([1]; Caco-2, 1 μM, 2 hours, pH 7.4): 6.07 ×10⁻⁶ cm/s
- Papp B→A at 2 h, 1 μM ([1]; Caco-2, 1 μM, 2 hours, pH 7.4): 12 ×10⁻⁶ cm/s
- half-life at 1 μM [2]: 1.84 h
- half-life at 1 μM [3]: 1.11 h
- half-life at 1 μM [4]: 0.935 h

Structure (SMILES): CN(C(=O)c1ccc2nc(N)c3cncn3c2c1)C1COc2cc(C(F)(F)F)ccc21 (stereo not shown) [Compound 17]
- pIC50 [5]: < 4.52
- Recovery AP − BL [6]: 81.0%
- Recovery BL − AP [6]: 85.6%
- Papp (A−B) ([6]; 2 hours, pH 7.4): 6.70 10^−6 cm/s
- Papp (B−A) ([6]; 2 hours, pH 7.4): 11.8 10^−6 cm/s
- Efflux Ratio ([6]; Papp (B-A)/Papp (A-B)): 1.76
- CLint (liver) M [7]: 183.3 mL/min/kg
- CLint (hep) M ([7]; mouse): 15.4 μL/min/10^6
- T1/2 (hepatocytes) M ([7]; mouse): 1.5 h
- pIC50 [8]: < 4.52

Structure (SMILES): CN(C(=O)c1cc2c(cn1)nc(N)c1cncn12)C1CC(F)(F)c2cc(C(F)(F)F)ccc21 (stereo not shown) [Compound 24]
- CLint (mic) C ([9]; cynomolgus monkey liver microsome): 9.9 µL/min/mg
- T1/2 of LMS, C ([9]; cynomolgus monkey liver microsome 0.5 mg protein/mL, 1 μM, NADPH): 2.338 h
- CLint (liver) C ([9]; cynomolgus monkey liver microsome, scaled to liver): 13.3 mL/min/kg
